Results published in patent US10646596B2, “Near-infrared dye-bound transferrin, and contrast agent for photoacoustic imaging, including the near-infrared dye-bound transferrin” (CANON KABUSHIKI KAISHA, priority 2015, dated 2020).

What was measured:
[1] = tested on: colon 26 mouse colon cancer cells (subcutaneous tumor); assay: Evaluation of tumor-imaging contrast by fluorescence imaging in cancer-bearing mouse; format: in vivo; conditions: for Imaging contrast (fluorescence intensity of tumor site / normal site): 24 hours after tail vein administration, 10 nmol dye per mouse (Alexa Fluor 680-TF (2.0): 31 nmol); for fluorescent signal from the tumor site in fluorescence image: 24 hours after administration, FIGURE
Source text: In the fluorescence imaging experiment, a female outbred BALB/c Slc-nu/nu mouse (6-week-old at the time of purchase) (Japan SLC, Inc.) was used. For one week before the mouse was allowed to bear a cancer, normal diet and bed were used to habituate the mouse to an environment where the diet and drinking water were available ad libitum. Before about one week of the imaging experiment, 1×10^6 colon 26 mouse colon cancer cells (RIKEN) were subcutaneously injected into the femur area of the mouse to thereby prepare a cancer-bearing model mouse.
In order to evaluate the tumor-imaging contrast, the fluorescence intensity of a tumor site (measured area: 0.5×0.5 cm) and the fluorescence intensity (selected as a normal site, measured area: 0.5×0.5 cm) of the base of a leg were quantified from the fluorescence imaging data illustrated in FIGURE. The ratio of the intensities, namely, the value obtained by dividing the value of the fluorescence intensity of a tumor site by the value of the fluorescence intensity of a normal site, was expressed by a numeral value as an imaging contrast. […] A larger imaging contrast of the compound of the present invention than the imaging contrast of Alexa Fluor 680-TF (2.0) is considered to be due to the difference in tumor accumulation property, as described later. The number of the dye(s) labeled at which the highest imaging contrast was achieved was 4.8. On the other hand, when the number of the dye(s) labeled exceeded 8, a tendency of the imaging contrast to be reduced was observed.

[2] = tested on: colon 26 mouse colon cancer cells (subcutaneous tumor); assay: Tumor accumulation property (amount of dye in tumor) in cancer-bearing mouse; format: in vivo; conditions: 24 hours after administration; for Tumor/blood ratio: tumor accumulation / residual rate in blood
Source text: (§1) The amount of the dye in a tumor and the amount of the dye in blood with respect to each mouse in the tumor-imaging experiment performed in Example 4 were quantitatively determined to thereby evaluate the tumor accumulation property and the residual rate in blood of each compound.
(§2) The tumor accumulation property was expressed as the rate of dye transfer (% ID/g) to a tumor relative to the amount of the dye to be administered per gram of the tumor. First, the mouse was euthanized by a carbon dioxide gas after 24 hours of administration, and thereafter the tumor was surgically resected. The tumor was transferred to a plastic tube, an aqueous 1% Triton-X100 solution was added at 1.25 times the weight of the tumor, and the tumor was crushed using a plastic pestle. Next, DMSO was added at 20.25 times the weight of the tumor tissue. The fluorescence intensity of the solution of the tumor crushed, treated as described above, was measured in the plastic tube using IVIS (registered trademark) Imaging System 200 Series (XENOGEN) to thereby measure the amount of the dye in the tumor.
(§3) The tumor/blood ratio was calculated by the above measurements. The ratio corresponds to the ratio of the tumor accumulation property to the residual rate in blood, and a higher ratio means a higher tumor-imaging ability.

[3] = Residual rate in blood (amount of dye in blood) in cancer-bearing mouse; format: in vivo; conditions: 24 hours after administration, tail vein blood
Procedure: as §1
The residual rate in blood was expressed as the rate of dye transfer (% ID/g) to blood relative to the amount of the dye to be administered per gram of blood (1 mL when the specific gravity was assumed to be 1). A blood sample was taken from the tail vein of the mouse after 24 hours of administration, and the blood sample, 1% Triton (registered trademark) X-100 and DMSO were mixed in the plastic tube in a ratio of 2:9:9. The fluorescence intensity of the blood solution treated as described above was measured in the plastic tube using IVIS (registered trademark) Imaging System 200 Series (manufactured by XENOGEN) to thereby measure the amount of the dye in blood.

[4] = Tumor accumulation property (amount of dye in tumor) in cancer-bearing mouse; format: in vivo; conditions: mouse, 24 hours after administration
Source text: as §1, §2, §3

[5] = in vivo; cited from earlier work

Molecule | Imaging contrast (fluorescence intensity of tumor site / normal site) [1] | Rate of tumor accumulation [2] | Tumor/blood ratio [2] | Residual rate in blood [3] [% ID/g] | fluorescent signal from the tumor site in fluorescence image [1] | tissue uptake at 24 h ([4]; tumor, read-out: Rate of tumor accumulation) [%ID/g] | Kp at 24 h ([4]; tumor accumulation / residual rate in blood, read-out: Tumor/blood ratio) | half-life in blood [5] | tissue uptake at 24 h ([3]; mouse, whole blood) [%ID/g]
Alexa Fluor 680-TF (2.0): Transferrin From Human Serum, Alexa Fluor 680 Conjugate, Life Technologies, Product No. T35357, number of dye(s) labeled 2.0 [reference compound] | 1.2 | 0.6 % ID/g | 0.2 | 2.8 |  |  |  |  | 
iTF (7.0): Human transferrin covalently bound to ICG-Sulfo-OSu near-infrared dye; number of dye(s) labeled 7.0 | 3.4 |  |  | 1.8 | the fluorescent signal from the tumor site was observed |  |  |  | 
iTF (8.4): Human transferrin covalently bound to ICG-Sulfo-OSu near-infrared dye; number of dye(s) labeled 8.4 | 2.3 | 0.8 % ID/g | 1.9 | 0.4 | the fluorescent signal from the tumor site was observed |  |  |  | 
iTF (4.8): Human transferrin covalently bound to ICG-Sulfo-OSu near-infrared dye; number of dye(s) labeled 4.8 | 4.1 |  | 3.3 | 2.1 | the fluorescent signal from the tumor site was observed |  |  |  | 
iTF (2.0): Human transferrin covalently bound to ICG-Sulfo-OSu near-infrared dye; number of dye(s) labeled 2.0 | 3.3 |  | 0.7 | 2.8 | the fluorescent signal from the tumor site was observed |  |  |  | 
CC1(C)C(/C=C/C=C/C=C/C=C2/N(CCCCS(=O)(=O)[O-])c3ccc4ccccc4c3C2(C)C)=[N+](CCCCS(=O)(=O)[O-])c2ccc3ccccc3c21.[Na+] [ICG, indocyanine green, reference compound] | 1.2 | zero |  |  | no fluorescent signal was observed | 0 | 0.1 | about several minutes | 0.1
iTF (8.3): Human transferrin covalently bound to ICG-Sulfo-OSu near-infrared dye; number of dye(s) labeled 8.3 | 3.3 |  | 2.9 | 0.7 | the fluorescent signal from the tumor site was observed |  |  |  | 
